Data as given in patent publication US8460669B2, “Compositions and methods for identifying response targets and treating flavivirus infection responses” (Academia Sinica, priority 2005, dated 2013).

Key:
TLR4.Fc = target: T1, TLR4.Fc (Homo sapiens, UniProt O00206); assay: Sugar competition EIA, TLR4.Fc binding to GLPS-F3; settings: sugar 1 mg/ml
T1 construct: The extracellular domains of several innate immunity receptors from immune cells were cloned by reverse-transcription polymerase chain reaction (RT-PCR); made in house; host or cells: 293-F (FreeStyle 293) cells
Procedure: (§1) The interaction between GLPS-F3 and receptor.Fc was then tested. Unbiotinylated GLPS-F3 was immobilized at 100 ng/well as described above, and 100 μL receptor.Fc fusion protein (1 μg/ml in 2 mM MgCl2/2 mM CaCl2/1% BSA/TBST) was added into each well and incubated for 1 hour at room temperature. After washing with TBST, wells were incubated with peroxidase-conjugated goat anti-human IgG Ab (1:5000 dilution, Jackson ImmunoResearch Laboratories) in blocking buffer at room temperature for 30 min. Wells were incubated with 100 μL TMB substrate for 15 min after TBST washing and read at 450 nm in a Fusion plate reader (Perkin Elmer). The results were normalized with respect to Fc.Dectin-1 binding (Dectin-1 is a known lectin receptor that binds to β-1,3-glucan which is the backbone found in GLPS-F3). FIG. 6B depicts in graphical form the affinity of each receptor for GLPS-F3 relative to Dectin-1. […] There was also weaker but positive GLPS-F3 binding ability (25-50% binding intensity compared to Fc.dectin-1) found in Fc.NKG2D, Fc.MINCLE, Fc.mKCR, DCAL1.Fc, DEC205.Fc, Endo180.Fc and NKp30(NCR3).Fc.
(§2) To understand the interaction of GLPS-F3 with specific innate immunity receptors, the polysaccharides mannan and β-glucan and the monosaccharides D-mannose (Man), D-glucose (Glc), N-acetyl-glucosamine (GlcNAc), D-galactose (Gal), N-acetyl-galactosamine (GalNAc), L-fucose (Fuc) and sialic acid, were used in a competition assay. […] The assays were carried out as in Example 9, with the addition of 1 mg/ml of each polysaccharide or monosaccharide.

Dectin-1.Fc = target: T2, Dectin-1.Fc (Homo sapiens, UniProt Q9BXN2); assay: Immunosorbent dot binding assay with Dectin-1.Fc; settings: competitor 0.1 μg-1000 μg, or EDTA 10 mM in TBST
T2 construct: The extracellular domains of lectin receptors, TREMs and TLTs were cloned by the reverse-transcriptase polymerase chain reaction (RT-PCR); made in house; host or cells: 293-F (FreeStyle 293) cells
T2 sequence (Q9BXN2 66-247 limits assumed): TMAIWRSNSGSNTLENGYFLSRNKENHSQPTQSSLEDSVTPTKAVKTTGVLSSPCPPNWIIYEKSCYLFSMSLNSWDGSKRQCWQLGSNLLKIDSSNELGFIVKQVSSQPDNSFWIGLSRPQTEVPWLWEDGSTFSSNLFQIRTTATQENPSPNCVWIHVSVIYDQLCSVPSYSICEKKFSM

MMR.Fc = target: T3, MMR.Fc (Homo sapiens, UniProt P22897); assay: Sugar competition EIA, MMR.Fc binding to GLPS-F3; settings: sugar 1 mg/ml
T3 construct: The extracellular domains of lectin receptors, TREMs and TLTs were cloned by the reverse-transcriptase polymerase chain reaction (RT-PCR); made in house; host or cells: 293-F (FreeStyle 293) cells
T3 sequence (P22897 19-1389 limits assumed): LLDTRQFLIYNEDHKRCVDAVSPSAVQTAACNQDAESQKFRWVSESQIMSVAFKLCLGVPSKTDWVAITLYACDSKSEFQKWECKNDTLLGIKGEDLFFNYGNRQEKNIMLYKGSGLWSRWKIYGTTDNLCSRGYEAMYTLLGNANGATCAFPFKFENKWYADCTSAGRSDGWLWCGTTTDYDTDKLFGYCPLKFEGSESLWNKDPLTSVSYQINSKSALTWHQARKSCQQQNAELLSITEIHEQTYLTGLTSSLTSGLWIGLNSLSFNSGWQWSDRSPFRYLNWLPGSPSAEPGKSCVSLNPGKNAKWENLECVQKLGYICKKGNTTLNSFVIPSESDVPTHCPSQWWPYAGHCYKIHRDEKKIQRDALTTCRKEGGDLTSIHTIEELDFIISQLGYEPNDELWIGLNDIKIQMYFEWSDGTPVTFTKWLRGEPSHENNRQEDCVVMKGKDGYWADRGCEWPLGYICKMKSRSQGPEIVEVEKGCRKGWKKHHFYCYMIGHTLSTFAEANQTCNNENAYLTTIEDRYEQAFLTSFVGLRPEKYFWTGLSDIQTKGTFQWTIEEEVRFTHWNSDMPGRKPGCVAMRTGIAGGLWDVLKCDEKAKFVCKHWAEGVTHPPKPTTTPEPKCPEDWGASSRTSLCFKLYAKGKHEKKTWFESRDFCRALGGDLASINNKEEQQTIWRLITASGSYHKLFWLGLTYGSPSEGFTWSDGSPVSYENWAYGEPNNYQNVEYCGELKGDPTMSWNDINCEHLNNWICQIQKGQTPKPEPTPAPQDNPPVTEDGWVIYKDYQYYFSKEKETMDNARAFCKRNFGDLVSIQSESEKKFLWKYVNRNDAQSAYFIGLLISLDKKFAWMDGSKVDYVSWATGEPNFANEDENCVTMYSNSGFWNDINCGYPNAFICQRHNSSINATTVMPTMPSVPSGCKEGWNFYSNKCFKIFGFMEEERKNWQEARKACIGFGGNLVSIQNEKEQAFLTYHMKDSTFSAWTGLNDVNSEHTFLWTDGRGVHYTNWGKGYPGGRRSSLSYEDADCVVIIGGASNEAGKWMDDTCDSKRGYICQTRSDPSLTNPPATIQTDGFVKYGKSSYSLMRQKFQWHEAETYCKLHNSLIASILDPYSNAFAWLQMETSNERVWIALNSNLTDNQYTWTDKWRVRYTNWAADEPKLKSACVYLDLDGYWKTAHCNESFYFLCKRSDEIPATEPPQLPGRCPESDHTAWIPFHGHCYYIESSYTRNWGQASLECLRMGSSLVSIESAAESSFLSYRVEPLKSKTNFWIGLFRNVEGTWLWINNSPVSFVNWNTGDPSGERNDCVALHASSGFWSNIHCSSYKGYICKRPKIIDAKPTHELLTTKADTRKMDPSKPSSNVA
Procedure: as §1, §2

Langerin = target: T4, Langerin (Homo sapiens, UniProt Q9UJ71); assay: Sugar competition EIA, Fc.Langerin binding to GLPS-F3; settings: sugar 1 mg/ml
T4 construct: The extracellular domains of lectin receptors, TREMs and TLTs were cloned by the reverse-transcriptase polymerase chain reaction (RT-PCR); made in house; host or cells: 293-F (FreeStyle 293) cells
Procedure: as §1, §2

CLEC-2 = target: T5, CLEC-2 (Homo sapiens, UniProt Q9P126); assay: Sugar competition EIA, Fc.CLEC-2 binding to GLPS-F3; settings: sugar 1 mg/ml
T5 construct: The extracellular domains of lectin receptors, TREMs and TLTs were cloned by the reverse-transcriptase polymerase chain reaction (RT-PCR); made in house; host or cells: 293-F (FreeStyle 293) cells
Procedure: as §1, §2

CLEC-6 = target: T6, CLEC-6 (Homo sapiens, UniProt Q8WXI8); assay: Sugar competition EIA, Fc.CLEC-6 binding to GLPS-F3; settings: sugar 1 mg/ml
T6 construct: The extracellular domains of lectin receptors, TREMs and TLTs were cloned by the reverse-transcriptase polymerase chain reaction (RT-PCR); made in house; host or cells: 293-F (FreeStyle 293) cells
T6 sequence (Q8WXI8 39-215 limits assumed): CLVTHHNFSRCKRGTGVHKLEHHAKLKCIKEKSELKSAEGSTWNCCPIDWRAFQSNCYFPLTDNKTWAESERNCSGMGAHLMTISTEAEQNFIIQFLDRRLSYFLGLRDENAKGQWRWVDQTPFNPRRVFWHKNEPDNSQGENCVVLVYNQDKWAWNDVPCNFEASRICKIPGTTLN
Procedure: as §1, §2

Dectin-1 = target: T7, Dectin-1 (Homo sapiens, UniProt Q9BXN2); assay: Sugar competition EIA, Fc.Dectin-1 binding to GLPS-F3; settings: sugar 1 mg/ml
T7 construct: The extracellular domains of lectin receptors, TREMs and TLTs were cloned by the reverse-transcriptase polymerase chain reaction (RT-PCR); made in house; host or cells: 293-F (FreeStyle 293) cells
T7 sequence (Q9BXN2 66-247 limits assumed): T2 sequence (Q9BXN2 66-247 limits assumed)
Procedure: as §1, §2

DC-SIGN = target: T8, DC-SIGN (Homo sapiens, UniProt Q9NNX6); assay: Sugar competition EIA, Fc.DC-SIGN binding to GLPS-F3; settings: sugar 1 mg/ml
T8 construct: The extracellular domains of lectin receptors, TREMs and TLTs were cloned by the reverse-transcriptase polymerase chain reaction (RT-PCR); made in house; host or cells: 293-F (FreeStyle 293) cells
T8 sequence (Q9NNX6 59-404 limits assumed): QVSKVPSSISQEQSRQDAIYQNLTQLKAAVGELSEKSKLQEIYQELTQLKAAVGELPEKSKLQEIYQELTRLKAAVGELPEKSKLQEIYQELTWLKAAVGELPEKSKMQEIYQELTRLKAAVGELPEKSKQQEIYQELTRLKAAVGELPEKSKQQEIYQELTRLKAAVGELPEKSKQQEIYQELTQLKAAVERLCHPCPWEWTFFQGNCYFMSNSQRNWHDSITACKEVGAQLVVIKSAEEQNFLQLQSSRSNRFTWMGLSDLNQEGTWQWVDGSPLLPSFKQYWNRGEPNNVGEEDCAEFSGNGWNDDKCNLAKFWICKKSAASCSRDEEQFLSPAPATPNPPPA
Procedure: as §1, §2

T5 sequence (Q9P126 55-229 limits assumed): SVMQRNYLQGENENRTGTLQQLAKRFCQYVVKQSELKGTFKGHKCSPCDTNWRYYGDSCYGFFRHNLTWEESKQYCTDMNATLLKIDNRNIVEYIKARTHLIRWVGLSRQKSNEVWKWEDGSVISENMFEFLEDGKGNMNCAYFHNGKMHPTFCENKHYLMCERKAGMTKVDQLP
T4 sequence (Q9UJ71 65-328 limits assumed): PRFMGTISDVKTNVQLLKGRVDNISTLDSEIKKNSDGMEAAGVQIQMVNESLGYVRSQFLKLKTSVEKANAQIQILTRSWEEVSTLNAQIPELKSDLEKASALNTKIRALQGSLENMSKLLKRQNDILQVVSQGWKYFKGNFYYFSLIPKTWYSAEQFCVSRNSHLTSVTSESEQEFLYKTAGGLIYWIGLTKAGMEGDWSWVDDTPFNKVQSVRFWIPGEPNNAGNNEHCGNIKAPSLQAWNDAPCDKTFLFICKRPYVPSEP
T1 sequence (O00206 24-631 limits assumed): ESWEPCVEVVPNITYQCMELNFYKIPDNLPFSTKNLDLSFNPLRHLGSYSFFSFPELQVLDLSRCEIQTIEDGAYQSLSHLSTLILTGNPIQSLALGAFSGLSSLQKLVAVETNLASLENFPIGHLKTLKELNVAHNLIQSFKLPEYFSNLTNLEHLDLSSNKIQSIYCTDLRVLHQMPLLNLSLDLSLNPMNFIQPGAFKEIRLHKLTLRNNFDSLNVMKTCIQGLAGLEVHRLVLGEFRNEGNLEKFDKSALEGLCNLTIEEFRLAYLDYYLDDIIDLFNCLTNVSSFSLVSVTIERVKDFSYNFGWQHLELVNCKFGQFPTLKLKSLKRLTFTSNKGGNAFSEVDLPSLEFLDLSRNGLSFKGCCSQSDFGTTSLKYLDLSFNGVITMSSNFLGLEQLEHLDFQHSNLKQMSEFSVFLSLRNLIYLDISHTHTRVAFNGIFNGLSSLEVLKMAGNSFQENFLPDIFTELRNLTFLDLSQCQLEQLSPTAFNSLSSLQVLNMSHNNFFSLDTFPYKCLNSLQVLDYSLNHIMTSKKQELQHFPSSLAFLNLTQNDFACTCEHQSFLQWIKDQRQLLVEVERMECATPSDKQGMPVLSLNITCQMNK

SMILES | Percentage of binding of TLR4.Fc to GLPS-F3 relative to binding in absence of sugar competitor (TLR4.Fc) [%] | inhibition of the interaction between Dectin-1.Fc and F3 (Dectin-1.Fc) | inhibition of interaction between GLPS-F3 and MMR.Fc (MMR.Fc) [%] | Percentage of binding of MMR.Fc to GLPS-F3 relative to binding in absence of sugar competitor (MMR.Fc) [%] | Percentage of binding of Langerin Fc fusion to GLPS-F3 relative to binding in absence of sugar competitor (Langerin) [%] | inhibition of interaction between Fc.Langerin and GLPS-F3 (Langerin) [%] | Percentage of binding of CLEC-2 Fc fusion to GLPS-F3 relative to binding in absence of sugar competitor (CLEC-2) [%] | inhibition of interaction of Fc.CLEC-2 to GLPS-F3 (CLEC-2) [%] | Percentage of binding of CLEC-6 Fc fusion to GLPS-F3 relative to binding in absence of sugar competitor (CLEC-6) [%] | Percentage of binding of Dectin-1 Fc fusion to GLPS-F3 relative to binding in absence of sugar competitor (Dectin-1) [%] | inhibition of interaction between GLPS-F3 and Fc.Dectin-1 (Dectin-1) [%] | Percentage of binding of DC-SIGN Fc fusion to GLPS-F3 relative to binding in absence of sugar competitor (DC-SIGN) [%] | inhibition of binding of Fc.DC-SIGN to GLPS-F3 (DC-SIGN) [%]
O=C[C@H](O)[C@@H](O)[C@@H](O)[C@H](O)CO [Gal, D-galactose] | 100 ± 2.7 | not | 36 | – | – | – | – | – | – | – | – | – | –
CC(=O)N[C@H]1[C@H]([C@H](O)[C@H](O)CO)OC(O)(C(=O)O)C[C@@H]1O (stereo partly drawn) [sialic acid] | 77 ± 3.1 | – | 93 | 7 ± 2.4 | 5 ± 0.3 | 95 | 45 ± 6.2 | 55 | 94 ± 13.0 | 17 ± 0.3 | 83 | 10 ± 1.0 | 90
CC(=O)N[C@H]1C(O)O[C@H](CO)[C@@H](O)[C@@H]1O (stereo partly drawn) [GlcNAc, N-acetyl-glucosamine] | 99 ± 4.7 | – | 78 | 22 ± 3.4 | 16 ± 2.7 | 84 | 103 ± 10.2 | – | 99 ± 8.5 | 91 ± 2.6 | – | 73 ± 8.6 | 27
CC(=O)N[C@H]1C(O)O[C@H](CO)[C@H](O)[C@@H]1O (stereo partly drawn) [GalNAc, N-acetyl-galactosamine] | 95 ± 4.1 | – | – | 80 ± 4.2 | 97 ± 0.7 | – | 110 ± 11.4 | – | 96 ± 2.4 | 88 ± 2.6 | – | 110 ± 3.1 | –
O=C[C@H](O)[C@@H](O)[C@H](O)[C@H](O)CO [Glc, D-glucose] | 101 ± 4.7 | not | 45 | – | – | – | – | – | – | – | – | – | 45
